Test results: patent US20030008012A1, “Composition for rectal delivery of an oxazolidinone antibacterial drug” (priority 2001, published 2003)

Experiment: Linezolid concentration in blood plasma of beagle dogs after rectal administration of one suppository
Assay type: in vivo
Conditions: dog, other: rectal
Procedure: One 20 mg linezolid suppository prepared as above was rectally administered to each of four beagle dogs, and the concentration of linezolid in blood plasma of the dogs was determined at different times after administration, as presented in Table 2.
One 600 mg linezolid suppository prepared as above was rectally administered to each of four beagle dogs and the concentration of linezolid in blood plasma of the dogs was determined at different times after administration, as presented in Table 3.

[1] = 20 mg, Example 2 solution suppository, 20 mg linezolid, Dog 1 (15.2 kg)
[2] = 20 mg, Example 2 solution suppository, 20 mg linezolid, Dog 2 (13.7 kg)
[3] = 20 mg, Example 2 solution suppository, 20 mg linezolid, Dog 3 (10.5 kg)
[4] = 20 mg, Example 2 solution suppository, 20 mg linezolid, Dog 4 (12.2 kg)
[5] = 600 mg, Example 5 particulate dispersion suppository, 600 mg linezolid, Dog 1 (15.0 kg)
[6] = 600 mg, Example 5 particulate dispersion suppository, 600 mg linezolid, Dog 2 (13.4 g)
[7] = 600 mg, Example 5 particulate dispersion suppository, 600 mg linezolid, Dog 3 (10.1 kg)
[8] = 600 mg, Example 5 particulate dispersion suppository, 600 mg linezolid, Dog 4 (12.5 kg)

concentration at 0.25 h [1]: 47.6 ng/mL
concentration at 0.5 h [1]: 132 ng/mL
concentration at 0.75 h [1]: 168 ng/mL
concentration at 1 h [1]: 209 ng/mL
concentration at 1.5 h [1]: 267 ng/mL
concentration at 2 h [1]: 354 ng/mL
concentration at 2.5 h [1]: 417 ng/mL
concentration at 3 h [1]: 364 ng/mL
concentration at 0.25 h [2]: 54.6 ng/mL
concentration at 0.5 h [2]: 136 ng/mL
concentration at 0.75 h [2]: 189 ng/mL
concentration at 1 h [2]: 197 ng/mL
concentration at 1.5 h [2]: 179 ng/mL
concentration at 2 h [2]: 238 ng/mL
concentration at 2.5 h [2]: 171 ng/mL
concentration at 3 h [2]: 146 ng/mL
concentration at 0.25 h [3]: 134 ng/mL
concentration at 0.5 h [3]: 305 ng/mL
concentration at 0.75 h [3]: 340 ng/mL
concentration at 1 h [3]: 388 ng/mL
concentration at 1.5 h [3]: 423 ng/mL
concentration at 2 h [3]: 351 ng/mL
concentration at 2.5 h [3]: 331 ng/mL
concentration at 3 h [3]: 317 ng/mL
concentration at 0.25 h [4]: 80.7 ng/mL
concentration at 0.5 h [4]: 204 ng/mL
concentration at 0.75 h [4]: 291 ng/mL
concentration at 1 h [4]: 394 ng/mL
concentration at 1.5 h [4]: 532 ng/mL
concentration at 2 h [4]: 548 ng/mL
concentration at 2.5 h [4]: 550 ng/mL
concentration at 3 h [4]: 556 ng/mL
concentration at 0.25 h [5]: 1110 ng/mL
concentration at 0.5 h [5]: 2250 ng/mL
concentration at 0.75 h [5]: 3840 ng/mL
concentration at 1 h [5]: 5010 ng/mL
concentration at 1.5 h [5]: 6260 ng/mL
concentration at 2 h [5]: 7230 ng/mL
concentration at 2.5 h [5]: 7980 ng/mL
concentration at 3 h [5]: 8480 ng/mL
concentration at 0.25 h [6]: 770 ng/mL
concentration at 0.5 h [6]: 1240 ng/mL
concentration at 0.75 h [6]: 1940 ng/mL
concentration at 1 h [6]: 2610 ng/mL
concentration at 1.5 h [6]: 3490 ng/mL
concentration at 2 h [6]: 3570 ng/mL
concentration at 2.5 h [6]: 5010 ng/mL
concentration at 3 h [6]: 4730 ng/mL
concentration at 0.25 h [7]: 444 ng/mL
concentration at 0.5 h [7]: 1110 ng/mL
concentration at 0.75 h [7]: 1680 ng/mL
concentration at 1 h [7]: 2540 ng/mL
concentration at 1.5 h [7]: 3460 ng/mL
concentration at 2 h [7]: 4840 ng/mL
concentration at 2.5 h [7]: 5510 ng/mL
concentration at 3 h [7]: 6570 ng/mL
concentration at 0.25 h [8]: 1100 ng/mL
concentration at 0.5 h [8]: 1720 ng/mL
concentration at 0.75 h [8]: 1930 ng/mL
concentration at 1 h [8]: 2640 ng/mL
concentration at 1.5 h [8]: 4260 ng/mL
concentration at 2 h [8]: 4810 ng/mL
concentration at 2.5 h [8]: 6060 ng/mL
concentration at 3 h [8]: 7480 ng/mL
Structure (SMILES): CC(=O)NC[C@H]1CN(c2ccc(N3CCOCC3)c(F)c2)C(=O)O1 [Linezolid, (S)-N-[[3-[3-fluoro-4-(4-morpholinyl)phenyl]-2-oxo-5-oxazolidinyl]methyl]acetamide]
